Laboratory results published in ChEMBL document CHEMBL3877260, “Synthesis and evaluation of C9 alkoxy analogues of (-)-stepholidine as dopamine receptor ligands” (Eur J Med Chem, 2017).

Key:
D(2) dopamine receptor [1] = target: T1, D(2) dopamine receptor (Homo sapiens, UniProt P14416); test: Displacement of [3H]N-methylspiperone from human D2 receptor expressed in HEKT cell membranes at 10 uM after 90 mins by microbeta scintillation counting method relative to control; details: HEKT cell membranes expressing human D2 receptor, probe [3H]N-methylspiperone
D(3) dopamine receptor [2] = target: T2, D(3) dopamine receptor (Homo sapiens, UniProt P35462); test: Displacement of [3H]N-methylspiperone from human D3 receptor expressed in HEKT cell membranes at 10 uM after 90 mins by microbeta scintillation counting method relative to control
D(1A) dopamine receptor [3] = target: T3, D(1A) dopamine receptor (Homo sapiens, UniProt P21728); test: Displacement of [3H]SCH23390 from human D1 receptor expressed in HEKT cell membranes at 10 uM after 90 mins by microbeta scintillation counting method relative to control
D(1A) dopamine receptor [4] = target: T3, D(1A) dopamine receptor; test: Displacement of [3H]SCH23390 from human D1 receptor expressed in HEKT cell membranes after 90 mins by microbeta scintillation counting method
D(3) dopamine receptor [5] = target: T2, D(3) dopamine receptor; test: Displacement of [3H]N-methylspiperone from human D3 receptor expressed in HEKT cell membranes after 90 mins by microbeta scintillation counting method
D(2) dopamine receptor [6] = target: T1, D(2) dopamine receptor; test: Displacement of [3H]N-methylspiperone from human D2 receptor expressed in HEKT cell membranes after 90 mins by microbeta scintillation counting method
[7] = Selectivity index, ratio of Ki for human D2 receptor expressed in HEKT cell membranes to Ki for human D1 receptor expressed in HEKT cell membranes
[8] = Antagonist activity at rhesus monkey D1 receptor expressed in HEK293 cells assessed as inhibition of dopamine-induced [35S]GTPgammaS binding; assay type: cell-based, Macaca mulatta
D(3) dopamine receptor [9] = target: T2, D(3) dopamine receptor; test: Antagonist activity at human D3 receptor expressed in CHO cells assessed as inhibition of dopamine-induced [35S]GTPgammaS binding; assay type: functional, cell-based

T1 sequence (P14416 whole entry): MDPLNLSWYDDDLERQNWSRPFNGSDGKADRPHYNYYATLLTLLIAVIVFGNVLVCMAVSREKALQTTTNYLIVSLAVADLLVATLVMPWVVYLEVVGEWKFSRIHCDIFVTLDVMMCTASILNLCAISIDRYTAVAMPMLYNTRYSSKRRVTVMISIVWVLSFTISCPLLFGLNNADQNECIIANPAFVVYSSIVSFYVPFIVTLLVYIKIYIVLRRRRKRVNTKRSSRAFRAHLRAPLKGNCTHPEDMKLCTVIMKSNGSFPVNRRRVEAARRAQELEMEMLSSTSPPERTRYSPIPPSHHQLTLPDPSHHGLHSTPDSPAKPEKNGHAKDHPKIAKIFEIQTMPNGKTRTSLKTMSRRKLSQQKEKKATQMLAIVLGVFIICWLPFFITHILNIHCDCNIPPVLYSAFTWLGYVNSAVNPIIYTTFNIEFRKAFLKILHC
T3 sequence (P21728 whole entry): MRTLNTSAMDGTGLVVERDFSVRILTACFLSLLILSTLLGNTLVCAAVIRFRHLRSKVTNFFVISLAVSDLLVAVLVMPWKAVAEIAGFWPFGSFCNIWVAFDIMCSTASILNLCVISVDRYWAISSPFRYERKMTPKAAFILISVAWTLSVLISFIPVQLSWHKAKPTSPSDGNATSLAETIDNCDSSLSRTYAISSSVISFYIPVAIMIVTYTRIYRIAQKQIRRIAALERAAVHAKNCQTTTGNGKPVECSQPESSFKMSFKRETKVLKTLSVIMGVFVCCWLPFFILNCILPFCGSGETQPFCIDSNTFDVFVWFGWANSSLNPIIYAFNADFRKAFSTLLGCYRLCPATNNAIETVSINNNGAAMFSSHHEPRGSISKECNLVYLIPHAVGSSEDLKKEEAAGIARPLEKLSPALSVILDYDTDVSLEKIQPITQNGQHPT
T2 sequence (P35462 whole entry): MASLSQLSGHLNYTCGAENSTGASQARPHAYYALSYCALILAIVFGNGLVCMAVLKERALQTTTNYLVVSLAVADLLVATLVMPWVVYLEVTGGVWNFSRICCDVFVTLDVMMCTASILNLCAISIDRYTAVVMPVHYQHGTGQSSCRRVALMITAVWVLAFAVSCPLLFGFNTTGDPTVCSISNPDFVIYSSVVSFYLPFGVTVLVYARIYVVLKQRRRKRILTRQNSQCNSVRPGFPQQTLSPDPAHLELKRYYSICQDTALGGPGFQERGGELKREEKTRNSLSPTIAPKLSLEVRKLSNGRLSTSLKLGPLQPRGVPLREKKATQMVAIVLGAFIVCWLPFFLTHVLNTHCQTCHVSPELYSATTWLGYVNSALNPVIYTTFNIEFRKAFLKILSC

Row | inhibition at 1.5 h, 10 µM (D(2) dopamine receptor [1]) [%] | inhibition (D(3) dopamine receptor [2]) [%] | inhibition (D(1A) dopamine receptor [3]) [%] | Ki (D(1A) dopamine receptor [4]) [nM] | Ki (D(3) dopamine receptor [5]) [nM] | Ki (D(2) dopamine receptor [6]) [nM] | IC50 [8] [nM] | Ke (D(3) dopamine receptor [9]) [nM] | SMILES | Ratio Ki [7]
1 | < 50 | > 50 |  |  |  |  |  |  | CCCCOc1c(O)ccc2c1CN1CCc3cc(OC)c(O)cc3[C@@H]1C2 | 
2 | < 50 | > 50 | > 50 | 4.2 | 726 |  |  |  | COCCOc1c(O)cc(Br)c2c1CN1CCc3cc(OC)c(O)cc3[C@@H]1C2 | 
3 | > 50 | > 50 | > 50 | 32 |  | 398 |  |  | CCCCCOc1c(O)cc(Br)c2c1CN1CCc3cc(OC)c(O)cc3[C@@H]1C2 | 
4 | > 50 | > 50 | > 50 | 7.7 |  | 18 |  |  | COCCOc1c(O)ccc2c1CN1CCc3cc(OC)c(O)cc3[C@@H]1C2 | 
5 | > 50 | > 50 | > 50 | 68 | 3170 | 731 |  |  | CCCCCCOc1c(O)cc(Br)c2c1CN1CCc3cc(OC)c(O)cc3[C@@H]1C2 | >10
6 | > 50 | > 50 | > 50 | 2.3 |  | 107 |  |  | CCCCOc1c(O)cc(Br)c2c1CN1CCc3cc(OC)c(O)cc3[C@@H]1C2 | 
7 | < 50 | > 50 | > 50 | 1.3 | 373 |  |  |  | CCOc1c(O)cc(Br)c2c1CN1CCc3cc(OC)c(O)cc3[C@@H]1C2 | >10
8 | > 50 | > 50 | > 50 | 9.7 | 2070 | 331 |  |  | CCC(C)Oc1c(O)cc(Br)c2c1CN1CCc3cc(OC)c(O)cc3[C@@H]1C2 (some centres undefined) | 
9 | > 50 | > 50 |  |  | 3210 | 23 |  |  | CCCCCOc1c(O)ccc2c1CN1CCc3cc(OC)c(O)cc3[C@@H]1C2 | 
10 | > 50 |  |  | 65 |  | 104 |  |  | CCC(C)Oc1c(O)ccc2c1CN1CCc3cc(OC)c(O)cc3[C@@H]1C2 (some centres undefined) | 
11 | < 50 | > 50 | > 50 | 77 | 195 |  |  |  | CCCCCCOc1c(O)ccc2c1CN1CCc3cc(OC)c(O)cc3[C@@H]1C2 | 
12 | > 50 | > 50 | > 50 |  |  |  |  |  | COc1cc2c(cc1O)[C@@H]1Cc3ccc(O)c(OC)c3CN1CC2 [STEPHOLIDINE] | 
13 | < 50 | > 50 | > 50 | 5.3 | 106 |  | 416 | 3.15 | CCOc1c(O)ccc2c1CN1CCc3cc(OC)c(O)cc3[C@@H]1C2 | 
14 | > 50 | > 50 | > 50 | 2.2 |  | 70 |  |  | CCCOc1c(O)cc(Br)c2c1CN1CCc3cc(OC)c(O)cc3[C@@H]1C2 | 
15 | > 50 | > 50 | > 50 | 12 | 175 | 41 |  |  | CCCOc1c(O)ccc2c1CN1CCc3cc(OC)c(O)cc3[C@@H]1C2 | 
